The values below come from patent publication US20230382925A1, “MODULATORS OF CYSTIC FIBROSIS TRANSMEMBRANE CONDUCTANCE REGULATOR” (VERTEX PHARMACEUTICALS INCORPORATED, priority 2020, published 2023).

The structures appear in SMILES notation. Read-outs that look alike come from different tables or passages of the source. Some results are limits rather than exact numbers.

The assay addresses CFTR (Homo sapiens, UniProt P13569). Kind of assay: Membrane Potential Dye, Enteroid Assay B. In kind it is cell-based. On the procedure:
Base medium (ADF+++) consisted of Advanced […], 2 mM Glutamax, 10 mM HEPES, 1 μg/mL penicillin/streptomycin.
Intestinal enteroid maintenance medium (IEMMN) consisted of ADF+++, 1× B27 supplement, 1× N2 supplement, 1.25 mM N-acetyl cysteine, 10 mM Nicotinamide, 50 ng/mL hEGF, 10 nM Gastrin, 1 μg/mL hR-spondin-1, 100 ng/mL hNoggin, TGF-b type 1 inhibitor A-83-01, 100 μg/mL Primocin, 10 μM P38 MAPK inhibitor SB202190.
Bath 1 Buffer consisted of 1 mM MgCl2, 160 mM NaCl, 4.5 mM KCl, 10 mM HEPES, 10 mM Glucose, 2 mM CaCl2).
Chloride Free Buffer consisted of 1 mM Magnesium Gluconate, 2 mM Calcium Gluconate, 4.5 mM Potassium Gluconate, 160 mM Sodium Gluconate, 10 mM HEPES, 10 mM Glucose.
Bath 1 Dye Solution consisted of Bath 1 Buffer, 0.04% Pluronic F127, 20 μM Methyl Oxonol, 30 μM CaCCinh-A01, 30 μM Chicago Sky Blue.
Chloride Free Dye Solution consisted of Chloride Free Buffer, 0.04% Pluronic F127, 20 μM Methyl Oxonol, 30 μM CaCCinh-A01, 30 μM Chicago Sky Blue.
Chloride Free Dye Stimulation Solution consisted of Chloride Free Dye Solution, 10 μM forskolin, 100 μM IBMX, and 300 nM Compound III.
Human intestinal epithelial enteroid cells were obtained from the Hubrecht Institute for Developmental Biology and Stem Cell Research, Utrecht, The Netherlands and expanded in T-Flasks as previously described (Dekkers J F, Wiegerinck C L, de Jonge H R, Bronsveld I, Janssens H M, de Winter-de Groot K M, Brandsma A M, de Jong N W M, Bijvelds M J C, Scholte B J, Nieuwenhuis E E S, van den Brink S, Clevers H, van der Ent C K, Middendorp S and M Beekman J M. A functional CFTR assay using primary cystic fibrosis intestinal organoids. Nat Med. 2013 July; 19(7):939-45.).
3. Enteroid Cell Harvesting and Seeding
Cells were recovered in cell recovery solution, collected by centrifugation at 650 rpm for 5 min at 4° C., resuspended in TrypLE and incubated for 5 min at 37° C. Cells were then collected by centrifugation at 650 rpm for 5 min at 4° C. and resuspended in IEMM containing 10 μM ROCK inhibitor (RI). The cell suspension was passed through a 40 μm cell strainer and resuspended at 1×10^6 cells/mL in IEMM containing 10 μM RI. Cells were seeded at 5000 cells/well into multi-well plates and incubated for overnight at 37° C., 95% humidity and 5% CO2 prior to assay.
5. Membrane Potential Dye, Enteroid Assay B
Enteroid cells were incubated with test compound in IEMM for 18-24 hours at 37° C., 95% humidity and 5% CO2. […] Briefly, cells were washed 5 times in Bath 1 Buffer. Bath 1 Dye Solution was added and the cells were incubated for 25 min at room temperature. Following dye incubation, cells were washed 3 times in Chloride Free Dye Solution. Chloride transport was initiated by addition of Chloride Free Dye Stimulation Solution and the fluorescence signal was read for 15 min. […] Chloride transport was then expressed as a percentage of the chloride transport following treatment with 1 μM (14S)-8-[3-(2-{Dispiro[2.0.2.1]heptan-7-yl}ethoxy)-1H-pyrazol-1-yl]-12,12-dimethyl-2λ^6-thia-3,9,11,18,23-pentaazatetracyclo[17.3.1.111,14.05,10]tetracosa-1(22),5,7,9,19(23),20-hexaene-2,2,4-trione, 3 μM (R)-1-(2,2-difluorobenzo[d][1,3]dioxol-5-yl)-N-(1-(2,3-dihydroxypropyl)-6-fluoro-2-(1-hydroxy-2-methylpropan-2-yl)-1H-indol-5-yl)cyclopropanecarboxamide and 300 nM acute N-[2,4-bis(1,1-dimethylethyl)-5-hydroxyphenyl]-1,4-dihydro-4-oxoquinoline-3-carboxamide triple combination control (% Activity).

Setting [1] is: Table 10, read-out: Ent. B EC50.

Chain of CFTR (P13569 with tags, fused parts or gaps DEL508-508): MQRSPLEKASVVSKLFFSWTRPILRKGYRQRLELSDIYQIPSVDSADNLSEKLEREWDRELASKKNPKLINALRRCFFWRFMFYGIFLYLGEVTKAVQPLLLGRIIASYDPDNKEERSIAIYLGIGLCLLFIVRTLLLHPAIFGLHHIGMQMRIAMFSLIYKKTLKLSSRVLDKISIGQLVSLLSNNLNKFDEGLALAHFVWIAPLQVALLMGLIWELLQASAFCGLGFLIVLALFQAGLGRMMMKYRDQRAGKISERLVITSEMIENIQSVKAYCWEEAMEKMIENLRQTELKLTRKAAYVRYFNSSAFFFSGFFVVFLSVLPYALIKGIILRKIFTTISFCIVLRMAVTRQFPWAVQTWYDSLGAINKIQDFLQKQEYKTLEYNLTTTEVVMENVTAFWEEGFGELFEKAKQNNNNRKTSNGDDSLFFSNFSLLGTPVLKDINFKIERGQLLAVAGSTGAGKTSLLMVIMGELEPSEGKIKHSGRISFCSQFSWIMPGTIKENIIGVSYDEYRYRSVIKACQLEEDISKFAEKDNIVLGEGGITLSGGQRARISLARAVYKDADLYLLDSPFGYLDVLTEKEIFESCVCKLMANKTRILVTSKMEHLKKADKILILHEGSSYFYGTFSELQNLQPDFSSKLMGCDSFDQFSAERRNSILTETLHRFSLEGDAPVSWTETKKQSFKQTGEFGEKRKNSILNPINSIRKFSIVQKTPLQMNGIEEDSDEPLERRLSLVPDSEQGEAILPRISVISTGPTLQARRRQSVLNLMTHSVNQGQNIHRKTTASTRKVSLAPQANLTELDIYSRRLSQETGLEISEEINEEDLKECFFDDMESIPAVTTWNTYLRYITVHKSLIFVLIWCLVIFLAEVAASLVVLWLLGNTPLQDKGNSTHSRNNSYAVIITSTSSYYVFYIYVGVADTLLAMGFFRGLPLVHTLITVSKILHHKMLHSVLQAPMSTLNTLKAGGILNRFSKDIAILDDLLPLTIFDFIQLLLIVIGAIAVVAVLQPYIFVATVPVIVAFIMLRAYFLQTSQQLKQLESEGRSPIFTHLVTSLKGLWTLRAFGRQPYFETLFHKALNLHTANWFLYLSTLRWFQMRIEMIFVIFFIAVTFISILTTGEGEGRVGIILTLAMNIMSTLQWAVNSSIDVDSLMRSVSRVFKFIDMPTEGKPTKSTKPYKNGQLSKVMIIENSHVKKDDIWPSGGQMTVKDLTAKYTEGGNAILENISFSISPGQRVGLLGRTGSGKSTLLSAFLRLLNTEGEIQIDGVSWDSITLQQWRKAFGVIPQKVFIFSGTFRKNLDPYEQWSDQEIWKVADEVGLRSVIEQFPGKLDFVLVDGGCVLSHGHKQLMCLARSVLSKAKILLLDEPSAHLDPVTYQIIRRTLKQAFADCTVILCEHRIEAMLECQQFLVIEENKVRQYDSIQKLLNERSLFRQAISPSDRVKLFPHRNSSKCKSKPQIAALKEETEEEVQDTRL

Take `Cc1cccc(C)c1-c1cc2nc(n1)NS(=O)(=O)c1cccc(c1)C(=O)N(C1CC3(CC(NC(=O)OC(C)C)C3)C1)[C@H](CC(C)(C)C)CO2` (single isomer, unassigned) [Compound 93]: the “Ent. B Max Activity (%)” value (Table 9) was “+++ (+++ is >60%)”. Besides, the half-maximal effective concentration (EC50) (Table 9, read-out: Ent. B EC50) was less than 1 µM.

On to `COC(=O)NC1(C)CC2(CC(N3C(=O)c4cccc(c4)S(=O)(=O)Nc4nc(cc(-c5c(C)cccc5C)n4)OC[C@H]3CC(C)(C)C)C2)C1` (single isomer, unassigned) [Compound 95], for which the “Ent. B Max Activity (%)” value (Table 10) is listed as “+++ (+++ is >60%)”. Also, under setting [1], the EC50 was less than 1 µM.

In the case of `COC(=O)NC1(C)CC2(CC(N3C(=O)c4cccc(c4)S(=O)(=O)Nc4nc(cc(-c5c(C)cccc5C)n4)OC[C@H]3CC(C)(C)C)C2)C1` (single isomer, unassigned) [Compound 96], the “Ent. B Max Activity (%)” value (Table 10) is reported as “++ (++ is 30-60%)”. Moreover, the EC50 under setting [1] is less than 1 µM.

As to `Cc1cccc(C)c1-c1cc2nc(n1)NS(=O)(=O)c1cccc(c1)C(=O)N([C@H]1C[C@@H](CN(C)C)C1)[C@H](CC(C)C)CO2` (single isomer, unassigned) [Compound 105], where the note is “Table 9”, the “Ent. B Max Activity (%)” value is reported as “+++ (+++ is >60%)”. In addition, the EC50 (Table 9, read-out: Ent. B EC50) was less than 1 µM.

On to `Cc1cccc(C)c1-c1cc2nc(n1)NS(=O)(=O)c1cccc(c1)C(=O)N([C@H]1C[C@@H](CN(C)C)C1)[C@H](CC(C)C)CO2` (single isomer, unassigned) [Compound 106], for which the “Ent. B Max Activity (%)” value (Table 9) is on record as “+++ (+++ is >60%)”. The EC50 (Table 9, read-out: Ent. B EC50) is less than 1 µM.

Consider `Cc1cccc(C)c1-c1cc2nc(n1)NS(=O)(=O)c1cccc(c1)C(=O)N([C@H]1C[C@@H](CNC(=O)OC(C)C)C1)[C@H](CC(C)C)CO2` (single isomer, unassigned) [Compound 107], for which the “Ent. B Max Activity (%)” value (Table 9) was “+++ (+++ is >60%)”. Also, where the note is “Table 9, read-out: Ent. B EC50”, the EC50 is less than 1 µM.

For `Cc1cccc(C)c1-c1cc2nc(n1)NS(=O)(=O)c1cccc(c1)C(=O)N([C@H]1C[C@@H](CNC(=O)OC(C)C)C1)[C@H](CC(C)C)CO2` (single isomer, unassigned) [Compound 108], the “Ent. B Max Activity (%)” value (Table 9) is “+++ (+++ is >60%)”. The EC50 (Table 9, read-out: Ent. B EC50) is less than 1 µM.

Take `Cc1cccc(C)c1-c1cc2nc(n1)NS(=O)(=O)c1cccc(c1)C(=O)N(C1CC3(CC(C(=O)N(C)C)C3)C1)[C@H](CC(C)(C)C)CO2` (single isomer, unassigned) [Compound 114]: the “Ent. B Max Activity (%)” value (Table 10) is reported as “+++ (+++ is >60%)”. The EC50 under setting [1] is less than 1 µM.

For the compound `[H][C@]1(N2C(=O)c3cccc(c3)S(=O)(=O)Nc3nc(cc(-c4c(C)cccc4C)n3)OC[C@H]2CC(C)(C)C)C[C@@]2(C[C@H](C(=O)N(C)C)C2)C1` (single isomer, unassigned) [Compound 115], the “Ent. B Max Activity (%)” value (Table 10) is reported as “+++ (+++ is >60%)”. In addition, under setting [1], the EC50 was less than 1 µM.

As to `Cc1cccc(C)c1-c1cc2nc(n1)NS(=O)(=O)c1cccc(c1)C(=O)N(C1CC3(C1)CC(C(C)(C)O)C3)[C@H](CC(C)(C)C)CO2` (single isomer, unassigned) [Compound 116], the “Ent. B Max Activity (%)” value (Table 10) is listed as “+++ (+++ is >60%)”. The EC50 under setting [1] was less than 1 µM.

For the compound `Cc1cccc(C)c1-c1cc2nc(n1)NS(=O)(=O)c1cccc(c1)C(=O)N(C1CC3(C1)CC(C(C)(C)O)C3)[C@H](CC(C)(C)C)CO2` (single isomer, unassigned) [Compound 117], the “Ent. B Max Activity (%)” value (Table 10) is “+++ (+++ is >60%)”. Also, the concentration giving a half-maximal response (EC50) under setting [1] was less than 1 µM.

Regarding `Cc1cccc(C)c1-c1cc2nc(n1)NS(=O)(=O)c1cccc(c1)C(=O)N(C1CC3(CC(N)C3)C1)[C@H](CC(C)(C)C)CO2` (single isomer, unassigned) [Compound 118], the “Ent. B Max Activity (%)” value was “+++ (+++ is >60%)”. Under “read-out: Ent. B EC50”, the EC50 is less than 1 µM.

Take `Cc1cccc(C)c1-c1cc2nc(n1)NS(=O)(=O)c1cccc(c1)C(=O)N(C1CC3(C1)CC(C)(O)C3)[C@H](CC(C)(C)C)CO2` (single isomer, unassigned) [Compound 119]: where the note is “Table 10”, the “Ent. B Max Activity (%)” value is “+++ (+++ is >60%)”. Also, under setting [1], the EC50 was less than 1 µM.

Consider `Cc1cccc(C)c1-c1cc2nc(n1)NS(=O)(=O)c1cccc(c1)C(=O)N(C1CC3(C1)CC(C)(O)C3)[C@H](CC(C)(C)C)CO2` (single isomer, unassigned) [Compound 120], for which, for the setting “Table 10”, the “Ent. B Max Activity (%)” value is listed as “++ (++ is 30-60%)”. The EC50 under setting [1] was less than 1 µM.

Turning to `Cc1cccc(C)c1-c1cc2nc(n1)NS(=O)(=O)c1cccc(c1)C(=O)N(C1CC3(CC(O)C3)C1)[C@H](CC(C)(C)C)CO2` (single isomer, unassigned) [Compound 121], under “Table 10”, the “Ent. B Max Activity (%)” value is “+++ (+++ is >60%)”. Also, the EC50 under setting [1] is less than 1 µM.

For `Cc1cccc(C)c1-c1cc2nc(n1)NS(=O)(=O)c1cccc(c1)C(=O)N(C1CC3(CC(O)C3)C1)[C@H](CC(C)(C)C)CO2` (single isomer, unassigned) [Compound 122], where the note is “Table 10”, the “Ent. B Max Activity (%)” value was “+++ (+++ is >60%)”. For the same compound, the EC50 under setting [1] was less than 1 µM.

On to `[H][C@]1(N2C(=O)c3cccc(c3)S(=O)(=O)Nc3nc(cc(-c4c(C)cccc4C)n3)OC[C@H]2CC(C)C)C[C@@]2(C[C@H](NC(=O)OC(C)C)C2)C1` (single isomer, unassigned) [Compound 123], for which, where the note is “Table 10”, the “Ent. B Max Activity (%)” value is on record as “+++ (+++ is >60%)”. In addition, the EC50 under setting [1] is less than 1 µM.

As for `[H][C@]1(N2C(=O)c3cccc(c3)S(=O)(=O)Nc3nc(cc(-c4c(C)cccc4C)n3)OC[C@H]2CC(C)C)C[C@@]2(C[C@H](NC(=O)OC(C)C)C2)C1` (single isomer, unassigned) [Compound 124], under “Table 10”, the “Ent. B Max Activity (%)” value is reported as “+++ (+++ is >60%)”. Moreover, the EC50 under setting [1] was less than 1 µM.

As to `Cc1cccc(C)c1-c1cc2nc(n1)NS(=O)(=O)c1cccc(c1)C(=O)N([C@H]1C[C@@H](OC(C)C)C1)[C@H](CC1(C(F)(F)F)CC1)CO2` (single isomer, unassigned) [Compound 130], under “Table 9”, the “Ent. B Max Activity (%)” value is listed as “+++ (+++ is >60%)”. The EC50 (Table 9, read-out: Ent. B EC50) was less than 1 µM.

As for `Cc1cccc(C)c1-c1cc2nc(n1)NS(=O)(=O)c1cccc(c1)C(=O)N([C@H]1C[C@@H](OC(C)C)C1)[C@H](CC1(C(F)(F)F)CC1)CO2` (single isomer, unassigned) [Compound 131], the “Ent. B Max Activity (%)” value (Table 9) is “+++ (+++ is >60%)”. The EC50 (Table 9, read-out: Ent. B EC50) was less than 1 µM.

On to `[H][C@]1(N2C(=O)c3cccc(c3)S(=O)(=O)Nc3nc(cc(-c4c(C)cccc4C)n3)OC[C@H]2CC2(C(F)(F)F)CC2)C[C@]2(C[C@@H](CO)C2)C1` (single isomer, unassigned) [Compound 134], for which the “Ent. B Max Activity (%)” value is “+++ (+++ is >60%)”. For the same compound, for the setting “read-out: Ent. B EC50”, the EC50 was less than 1 µM.

On to `[H][C@]1(N2C(=O)c3cccc(c3)S(=O)(=O)Nc3nc(cc(-c4c(C)cccc4C)n3)OC[C@H]2CC2(C(F)(F)F)CC2)C[C@]2(C[C@@H](CO)C2)C1` (single isomer, unassigned) [Compound 135], for which the “Ent. B Max Activity (%)” value is listed as “+++ (+++ is >60%)”. Further, the EC50 (read-out: Ent. B EC50) was less than 1 µM.

As to `Cc1cccc(C)c1-c1cc2nc(n1)NS(=O)(=O)c1cccc(c1)C(=O)N([C@H]1C[C@@H](C(C)(C)O)C1)[C@H](CC(C)(C)C)CO2` (single isomer, unassigned) [Compound 141], the “Ent. B Max Activity (%)” value (Table 10) is reported as “+++ (+++ is >60%)”. Also, the EC50 under setting [1] was less than 1 µM.

For `Cc1cccc(C)c1-c1cc2nc(n1)NS(=O)(=O)c1cccc(c1)C(=O)N([C@H]1C[C@@H](C(C)(C)O)C1)[C@H](CC(C)(C)C)CO2` (single isomer, unassigned) [Compound 142], under “Table 10”, the “Ent. B Max Activity (%)” value is recorded as “+++ (+++ is >60%)”. Also, the EC50 under setting [1] is less than 1 µM.

One may read the EC50 as the midpoint of the concentration-response curve.
